{"source": "patent US20080241919A1", "about": "“Defined media for pluripotent stem cell culture” (The Burnham Institute of Medical Research, priority 2003, published 2008)", "system": "human embryonic stem cells (hESCs)", "experiment": "bFGF dose-response, maintenance of undifferentiated hESCs under feeder-free condition on laminin/collagen-coated plates", "assay_type": "cell-based", "description": "(c) bFGF dose-response assays—assessing maintenance of the undifferentiated state.\nTo discover the minimal essential conditions needed to support the long-term growth of undifferentiated hESCs, morphological analysis was used to assess the developmental stage of hESCs at different times. For these analyses hESCs were grown in a 6- or 12-well plate to maturation (day 6 or 7 after seeding) before being fixed and visualized under a phase contrast microscope. Cellular immunofluorescence was also employed to assess the state of differentiation of hESCs. To perform these studies, hESCs were grown to maturation (day 6 or 7 after seeding) in a 12- or 24-well plate with a round cover slide in the bottom of each well. The cells were then fixed with 4% paraformaldehyde and blocked in PBS buffer containing 0.2% Triton X-100 and 2% BSA. Next, the cells were incubated with a primary antibody (Oct-4, SSEA-1, SSEA-3, SSEA-4, Tra-1-60, Tra-1-81, alkaline phosphatase, Myc, Map-2, Nkx2.5, bFGF (Santa Cruz Biotechnology, Inc.; Santa Cruz, Calif., world wide web: scbt.com) nestin, tyrosine hydroxylase (Chemicon International, Temecula, Calif., world wide web: chemicon.com), beta-tubulin (Sigma), p300, Tip60, or acetylated H4 (K5, 8, 12, 16) (Upstate Biotechnology, Lake Placid, N.Y., world wide web: upstate.com) in wash buffer (0.1% Triton X-100 in PBS) at 4° C. overnight, and then with secondary antibody (Molecular Probe; Eugene, Oreg., world wide web: probes.com) in wash buffer at room temperature for 45 minutes. After further staining with DAPI, cells were mounted onto a microscope slide and visualized under an immunofluorescence and deconvolution microscope. The state of differentiation of hESC was further assessed by generating (via lentiviral-mediated transduction) hESCs carrying a reporter gene (enhanced green fluorescence protein (EGFP)) under control of the Oct-4 promoter. Using these transfected hESCs (carrying Oct-4 driven EGFP), the undifferentiated state of hESCs can be visualized by green fluorescence (indicating Oct-4 expression).\nThe mechanism by which MEF-conditioned media exerts these effects is unknown, and it could involve the presence of growth factors, removal of toxic factors from the medium, or both. Based on the discovery that bFGF (at relatively high concentrations) promotes undifferentiated growth of hESCs on HFFs, it was decided to test whether bFGF promotes undifferentiated growth of hESCs on matrix proteins in the absence of feeder cells. Gelatin pre-coated plates were incubated with a commercially-available combination of laminin and collagen known as Matrigel (Growth factor reduced, Becton Dickinson) [diluted 1:30 in cold DMEM/F-12] at 4° C. overnight. The growth of hESCs on laminin/collagen-coated plates in the defined hESC media containing 20 ng/ml bFGF was examined. […]\nTo further assess the effect of bFGF on hESC undifferentiated growth, short-term proliferation assays of hESCs maintained under the feeder-free condition in the defined hESC media containing 0, 4, 10, 20, 30, or 50 ng/ml bFGF were performed. […] To further affirm the role of bFGF on hESC undifferentiated growth, hESCs carrying a reporter gene (enhanced green fluorescence protein [EGFP]) under control of Oct-4 promoter were generated (via lentiviral-mediated transduction).", "data": [{"substance": "bFGF: basic fibroblast growth factor, growth factor added to the defined hESC media", "values": [{"measurement": "hESC colonies with completely differentiated morphology that ceased expressing Oct-4", "setting": "absence of bFGF, laminin/collagen, first passage", "value": "approximately 80%"}, {"measurement": "percentage of undifferentiated hESC colonies at higher dosages", "setting": "bFGF 30 and 50 ng/ml versus 20 ng/ml, 7 days", "value": "slightly decreased percentages of undifferentiated hESC colonies"}, {"measurement": "hESC colonies highly compact and undifferentiated (morphology, Oct-4, SSEA-4, Tra-1-60, Tra-1-81 expression)", "setting": "defined hESC media containing 20 ng/ml bFGF, laminin/collagen-coated plates, each passage, day 7", "value": "Over 80%"}, {"measurement": "differentiation rate of hESCs", "setting": "low concentration of bFGF (4 ng/ml), feeder-free, defined media", "value": "high differentiation rates"}, {"measurement": "bFGF concentration maintaining the optimal proportion of undifferentiated hESCs, comparable to MEF-CM", "setting": "tested 0, 4, 10, 20, 30, 50 ng/ml, 7 days", "value": 20, "unit": "ng/mL"}]}]}
